The values that follow come from US20130303535A1, “NOVEL BICYCLIC HETEROCYCLIC COMPOUND” (priority 2008, published 2013).

This experiment deals with TTX resistant Na channel of human SNS-expressing cell (SNS) (Homo sapiens, UniProt Q9Y5Y9). Description: cell-based. Particulars: CHO-K1, compound concentration 12.5 μM; read-out: SNS inhibitory rate (%).
Chain of TTX resistant Na channel of human SNS-expressing cell (SNS) (Q9Y5Y9 whole entry, looked up): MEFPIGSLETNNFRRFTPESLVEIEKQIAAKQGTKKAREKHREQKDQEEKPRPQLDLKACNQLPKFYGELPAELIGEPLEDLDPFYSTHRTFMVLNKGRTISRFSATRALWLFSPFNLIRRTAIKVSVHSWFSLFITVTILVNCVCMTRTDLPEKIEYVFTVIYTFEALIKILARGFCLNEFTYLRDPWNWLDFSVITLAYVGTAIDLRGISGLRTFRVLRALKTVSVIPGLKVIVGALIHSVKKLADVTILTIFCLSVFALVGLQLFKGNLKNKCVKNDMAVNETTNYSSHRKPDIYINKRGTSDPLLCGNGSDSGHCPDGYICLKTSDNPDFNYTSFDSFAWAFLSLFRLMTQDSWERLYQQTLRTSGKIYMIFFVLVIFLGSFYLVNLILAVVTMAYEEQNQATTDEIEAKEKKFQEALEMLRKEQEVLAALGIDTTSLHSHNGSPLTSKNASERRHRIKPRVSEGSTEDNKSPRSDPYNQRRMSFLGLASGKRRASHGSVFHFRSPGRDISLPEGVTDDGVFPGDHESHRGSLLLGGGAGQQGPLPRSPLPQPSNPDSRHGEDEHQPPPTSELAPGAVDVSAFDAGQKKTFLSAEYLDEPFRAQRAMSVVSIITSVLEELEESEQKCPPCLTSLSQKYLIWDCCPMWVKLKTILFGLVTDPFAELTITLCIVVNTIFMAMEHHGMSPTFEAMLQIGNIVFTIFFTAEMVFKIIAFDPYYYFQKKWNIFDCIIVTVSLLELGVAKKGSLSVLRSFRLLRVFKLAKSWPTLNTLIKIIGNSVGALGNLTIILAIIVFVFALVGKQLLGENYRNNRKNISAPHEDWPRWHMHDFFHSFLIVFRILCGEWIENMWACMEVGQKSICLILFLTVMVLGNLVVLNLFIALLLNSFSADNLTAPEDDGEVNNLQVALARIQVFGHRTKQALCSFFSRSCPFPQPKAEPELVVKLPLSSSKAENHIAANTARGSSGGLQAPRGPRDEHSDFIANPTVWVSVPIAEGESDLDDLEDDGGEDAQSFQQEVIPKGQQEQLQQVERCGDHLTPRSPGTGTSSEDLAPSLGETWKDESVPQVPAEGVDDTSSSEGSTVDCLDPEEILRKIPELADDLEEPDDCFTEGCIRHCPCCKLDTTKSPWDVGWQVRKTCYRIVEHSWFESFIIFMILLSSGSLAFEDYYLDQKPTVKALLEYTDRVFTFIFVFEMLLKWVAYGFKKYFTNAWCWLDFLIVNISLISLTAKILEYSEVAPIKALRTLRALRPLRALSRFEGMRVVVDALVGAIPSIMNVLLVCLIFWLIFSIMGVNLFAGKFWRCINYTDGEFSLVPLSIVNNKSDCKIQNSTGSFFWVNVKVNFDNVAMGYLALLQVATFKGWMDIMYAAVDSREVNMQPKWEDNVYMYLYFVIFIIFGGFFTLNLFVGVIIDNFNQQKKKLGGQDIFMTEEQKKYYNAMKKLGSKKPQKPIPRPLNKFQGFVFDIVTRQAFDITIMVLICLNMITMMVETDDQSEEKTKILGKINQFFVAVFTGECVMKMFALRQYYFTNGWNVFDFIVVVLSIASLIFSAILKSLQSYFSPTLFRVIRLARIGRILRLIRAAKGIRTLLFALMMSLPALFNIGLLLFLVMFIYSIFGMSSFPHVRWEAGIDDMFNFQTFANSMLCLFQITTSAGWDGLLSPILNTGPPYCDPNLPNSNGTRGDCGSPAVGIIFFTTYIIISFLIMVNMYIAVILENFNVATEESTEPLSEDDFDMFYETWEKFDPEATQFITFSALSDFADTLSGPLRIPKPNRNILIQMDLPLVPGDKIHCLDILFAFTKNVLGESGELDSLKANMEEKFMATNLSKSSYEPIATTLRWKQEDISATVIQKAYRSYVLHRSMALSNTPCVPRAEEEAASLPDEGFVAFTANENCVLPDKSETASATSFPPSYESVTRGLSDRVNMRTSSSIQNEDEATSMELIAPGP
With `CCOCCn1c(CN2CCC[C@H]2C(N)=O)nc2ccc(Oc3ccc(F)cc3)cc21` [Example 15], the inhibition at 12.5 µM came out at 95.7%.

With `CCOCCn1c(CNC(C)(C)C(N)=O)nc2ccc(Oc3ccccc3)cc21` [Example 39], the inhibition at 12.5 µM turned out to be 48.8%.

Take `CC(C)n1c(CNCC(N)=O)nc2ccc(Oc3ccccc3)cc21` [Example 10]: the inhibition at 12.5 µM is 16.3%.

For the compound `CCOCCn1c(CNCC(N)=O)nc2ccc(-c3ccc(Cl)cc3)cc21` [Example 72], the inhibition at 12.5 µM is 7.3%.

In the case of `Cc1ccc(Oc2ccc3nc(CN[C@@H](C)C(N)=O)n(C[C@@H]4CCCO4)c3c2)cc1` [Example 119], the inhibition at 12.5 µM is 87.2%.

For the compound `CCOCCn1c(CN[C@@H](C)C(=O)N2CCOCC2)nc2ccc(Oc3ccc(F)cc3)cc21` [Example 90], the inhibition at 12.5 µM turned out to be 96.1%.

With `CCOCCn1c(CNC(C)(C)C(N)=O)nc2ccc(-c3ccc(F)cc3Cl)cc21` [Example 156], the inhibition at 12.5 µM stood at 71.2%.

For `COCCCn1c(CN[C@@H](C)C(N)=O)nc2ccc(Oc3ccc(F)cc3)cc21` [Example 64], the inhibition at 12.5 µM is 82.7%.

As to `CCOCCn1c(CNC(C)(C)C(N)=O)nc2ccc(Oc3ccccc3Cl)cc21` [Example 32], the inhibition at 12.5 µM came out at 91.2%.

In the case of `CCOCCn1c(CN[C@@H](C)C(N)=O)nc2cc(F)c(-c3ccc(C)cc3)cc21` [Example 184], the inhibition at 12.5 µM is 87.9%.

For `CCOCCn1c(CN[C@@H](C)C(N)=O)nc2ccc(-c3ccc(F)cc3Cl)cc21` [Example 155], the inhibition at 12.5 µM was determined as 86.1%.

In the case of `CCOCCn1c(CN[C@@H](C)C(N)=O)nc2ccc(Oc3ccc(CC)cc3)cc21` [Example 102], the inhibition at 12.5 µM was determined as 96.3%.

Regarding `COCCCn1c(CN[C@@H](C)C(N)=O)nc2ccc(Oc3ccc(OC(F)(F)F)cc3)cc21` [Example 127], the inhibition at 12.5 µM is 93.9%.

For the compound `CCOCCn1c(CNC(C)(C)C(N)=O)nc2ccc(-c3ccc(F)c(C)c3)cc21` [Example 168], the inhibition at 12.5 µM stood at 20.2%.

With `CC(C)(NCc1nc2ccc(Oc3ccc(F)cc3)cc2n1CCO)C(N)=O` [Example 143], the inhibition at 12.5 µM came out at 27.7%.

With `CCOCCn1c(CN[C@@H](C)C(N)=O)nc2cc(Cl)c(Oc3ccc(F)cc3)cc21` [Example 118, N^2-{[5-chloro-1-(2-ethoxyethyl)-6-(4-fluorophenoxy)-1H-benzimidazol-2-yl]methyl}-L-alaninamide], the inhibition at 12.5 µM stood at 64.5%.

Take `CCOCCn1c(CN[C@@H](C)C(N)=O)nc2ccc(-c3ccccc3Cl)cc21` [Example 71]: the inhibition at 12.5 µM came out at 73.7%.

For `CCOCCn1c(CN[C@@H](C)C(N)=O)nc2ccc(Oc3ccc(F)c(F)c3)cc21` [Example 48], the inhibition at 12.5 µM was 96.7%.

Take `C[C@H](NCc1nc2ccc(Oc3ccc(F)cc3)cc2n1C1CCN(S(C)(=O)=O)CC1)C(N)=O` [Example 86, N^2-({6-(4-fluorophenoxy)-1-[1-(methylsulfonyl)piperidin-4-yl]-1H-benzimidazol-2-yl}methyl)-L-alaninamide]: the inhibition at 12.5 µM was determined as 8.3%.

Take `C[C@H](NCc1nc2ccc(Oc3ccc(F)cc3F)cc2n1CC(C)(C)O)C(N)=O` [Example 105]: the inhibition at 12.5 µM worked out at 75.1%.

`COCCCn1c(CNC(C)(C)C(N)=O)nc2ccc(Oc3ccc(C)cc3)cc21` [Example 142]: the inhibition at 12.5 µM amounted to 47.9%.

Regarding `CCOCCn1c(CN[C@@H](C)C(N)=O)nc2ccc(Oc3ccc(OC)cc3)cc21` [Example 75, N^2-{[1-(2-ethoxyethyl)-6-(4-methoxyphenoxy)-1H-benzimidazol-2-yl]methyl}-L-alaninamide], the inhibition at 12.5 µM was determined as 0%.

For the compound `CCOCCn1c(CN[C@@H](C)C(N)=O)nc2ccc(Oc3cccc(Cl)c3)cc21` [Example 29], the inhibition at 12.5 µM came to 27%.

Take `CCOCCn1c(CN[C@@H](C)C(N)=O)nc2ccc(Oc3ccc(F)cc3Cl)cc21` [Example 93]: the inhibition at 12.5 µM was 82.1%.

`NC(=O)[C@@H]1CCCN1Cc1nc2ccc(Oc3ccccc3)cc2n1C[C@H]1CCCO1` [Example 19]: the inhibition at 12.5 µM is 100%.

As to `CCOCCn1c(CNC(C)(C)C(N)=O)nc2ccc(-c3ccc(C)cc3F)cc21` [Example 166], the inhibition at 12.5 µM turned out to be 62.7%.

As to `C[C@H](NCc1nc2ccc(Oc3ccc(F)cc3)cc2n1C[C@H]1CCCO1)C(N)=O` [Example 51], the inhibition at 12.5 µM amounted to 90.5%.

As for `CCn1c(CN[C@@H](C)C(N)=O)nc2ccc(Oc3ccc(F)c(F)c3)cc21` [Example 97], the inhibition at 12.5 µM amounted to 82.4%.

As for `COCCCn1c(CN[C@@H](C)C(N)=O)nc2ccc(Oc3ccc(F)cc3F)cc21` [Example 123], the inhibition at 12.5 µM amounted to 96.8%.

In the case of `CCOCCn1c(CNCC(N)=O)nc2ccc(Oc3ccccc3)cc21` [Example 2, N^2-{[1-(2-ethoxyethyl)-6-phenoxy-1H-benzimidazol-2-yl]methyl}glycinamide], the inhibition at 12.5 µM amounted to 8.4%.

Consider `CCOCCn1c(CN[C@@H](C)C(N)=O)nc2ccc(-c3ccccc3C)cc21` [Example 153], for which the inhibition at 12.5 µM amounted to 28.5%.

On to `CCOCCn1c(CN[C@@H](C)C(N)=O)nc2cc(F)c(-c3ccc(C)c(F)c3)cc21` [Example 189], for which the inhibition at 12.5 µM came out at 97.7%.

For the compound `C[C@H](NCc1nc2ccc(Oc3ccc(F)cc3F)cc2n1C[C@H]1CCCO1)C(N)=O` [Example 125], the inhibition at 12.5 µM stood at 95.9%.

In the case of `CCOCCn1c(CN[C@@H](C)C(N)=O)nc2ccc(Oc3ccc4c(c3)CCC4)cc21` [Example 95], the inhibition at 12.5 µM turned out to be 26.8%.

For the compound `COCCCn1c(CN[C@@H](C)C(N)=O)nc2ccc(Oc3ccccc3)cc21` [Example 24], the inhibition at 12.5 µM stood at 5.8%.

With `C[C@H](NCc1nc2ccc(Oc3ccccc3)cc2n1C[C@@H]1CCCO1)C(N)=O` [Example 22], the inhibition at 12.5 µM came out at 16.4%.

On to `COCCCn1c(CN[C@@H](C)C(N)=O)nc2ccc(Oc3ccc(F)c(F)c3)cc21` [Example 122], for which the inhibition at 12.5 µM was determined as 100%.

For `C[C@H](NCc1nc2ccc(Oc3ccc(F)cc3F)cc2n1C[C@@H]1CCCO1)C(N)=O` [Example 121], the inhibition at 12.5 µM was found to be 94.3%.

`CCn1c(CNC(C)(C)C(N)=O)nc2ccc(Oc3ccc(C)cc3)cc21` [Example 135]: the inhibition at 12.5 µM was determined as 57.8%.

For `CCOCCn1c(CNCC(N)=O)nc2ccc(-c3ccccc3)cc21` [Example 66, N^2-{[1-(2-ethoxyethyl)-6-phenyl-1H-benzimidazol-2-yl]methyl}glycinamide], the inhibition at 12.5 µM amounted to 16.8%.

In the case of `CCOCCn1c(CN[C@@H](C)C(N)=O)nc2ccc(Oc3ccc(Cl)cc3)cc21` [Example 27], the inhibition at 12.5 µM is 78.2%.

For `CCOCCn1c(CN[C@@H](C)C(N)=O)nc2cc(F)c(-c3ccccc3)cc21` [Example 185], the inhibition at 12.5 µM was 64.6%.

For the compound `C[C@H](NCc1nc2ccc(Oc3ccccc3)cc2n1C1CCCC1)C(N)=O` [Example 26], the inhibition at 12.5 µM worked out at 26.6%.

On to `CCOCCn1c(CN[C@@H](C)C(N)=O)nc2ccc(-c3ccc(F)c(C)c3)cc21` [Example 167], for which the inhibition at 12.5 µM was 82.8%.

Consider `CCOCCn1c(CN[C@@H](C)C(N)=O)nc2ccc(Oc3cc(F)cc(F)c3F)cc21` [Example 57], for which the inhibition at 12.5 µM was 87.6%.

As to `CCOCCn1c(CN[C@@H](C)C(N)=O)nc2ccc(-c3ccc(OC(F)(F)F)cc3)cc21` [Example 145], the inhibition at 12.5 µM came to 1.3%.

Turning to `CCOCCn1c(CN[C@H](C)C(N)=O)nc2ccc(Oc3ccc(F)cc3)cc21` [Example 54], the inhibition at 12.5 µM was found to be 95.7%.

Turning to `Cc1ccc(Oc2ccc3nc(CN[C@@H](C)C(N)=O)n(CC(C)(C)O)c3c2)cc1` [Example 101], the inhibition at 12.5 µM is 85.2%.

`CCOCCn1c(CN[C@@H](C)C(N)=O)nc2ccc(OCc3ccc(F)cc3)cc21` [Example 78, N^2-({1-(2-ethoxyethyl)-6-[(4-fluorobenzyl)oxy]-1H-benzimidazol-2-yl}methyl)-L-alaninamide]: the inhibition at 12.5 µM is 22.2%.

Consider `CCOCCn1c(CN[C@@H](C)C(N)=O)nc2ccc(Oc3cc(F)c(F)cc3F)cc21` [Example 55], for which the inhibition at 12.5 µM worked out at 89.4%.

On to `CCOCCn1c(CN[C@@H](C)C(N)=O)nc2cc(F)c(-c3ccc(F)c(F)c3)cc21` [Example 183], for which the inhibition at 12.5 µM amounted to 72.3%.

Regarding `CCOCCn1c(CN[C@@H](C)C(=O)NCCOC)nc2ccc(Oc3ccc(F)cc3)cc21` [Example 88], the inhibition at 12.5 µM was 83.5%.

`NC(=O)CNCc1nc2ccc(Oc3ccccc3)cc2n1CC1CCOCC1` [Example 14]: the inhibition at 12.5 µM was 16.4%.

Consider `CCOCCn1c(CN[C@@H](C)C(N)=O)nc2ccc(-c3ccccc3)cc21` [Example 69], for which the inhibition at 12.5 µM amounted to 22.3%.

Turning to `CCOCCn1c(CN[C@@H](C)C(N)=O)nc2ccc(-c3cccc(C)c3)cc21` [Example 152], the inhibition at 12.5 µM stood at 8.9%.

As for `Cc1ccc(Oc2ccc3nc(CN[C@@H](C)C(N)=O)n(C4CCOCC4)c3c2)cc1` [Example 129], the inhibition at 12.5 µM came to 90.3%.

For `CC(C)OCCn1c(CN[C@@H](C)C(N)=O)nc2ccc(Oc3ccc(F)cc3)cc21` [Example 62], the inhibition at 12.5 µM came out at 93.8%.

Turning to `CCOCCn1c(CNC(C)(C)C(N)=O)nc2ccc(Oc3cccc(Cl)c3)cc21` [Example 30], the inhibition at 12.5 µM turned out to be 31.5%.

For the compound `CCOCCn1c(CN[C@@H](C)C(N)=O)nc2ccc(-c3ccc(F)c(OC)c3)cc21` [Example 173], the inhibition at 12.5 µM was 27.1%.

Consider `CCOCCn1c(CNC(C)(C)C(N)=O)nc2ccc(-c3ccc(F)cc3OC)cc21` [Example 174], for which the inhibition at 12.5 µM was found to be 33.4%.

Consider `CCOCCn1c(CN[C@@H](C)C(N)=O)nc2ccc(Oc3ccc(F)cc3)cc21` [Example 59, N^2-{[1-(2-ethoxyethyl)-6-(4-fluorophenoxy)-1H-benzimidazol-2-yl]methyl}-L-alaninamide], for which the inhibition at 12.5 µM is 54.8%.

`CCOCCn1c(CN[C@@H](C)C(N)=O)nc2ccc(Oc3ccc(C(F)(F)F)cc3)cc21` [Example 46]: the inhibition at 12.5 µM was found to be 95.5%.

For `Cc1ccc(Oc2ccc3nc(CN[C@@H](C)C(N)=O)n(C[C@H]4CCCO4)c3c2)cc1` [Example 131], the inhibition at 12.5 µM was found to be 55.9%.

`CCn1c(CNC(C)(C)C(N)=O)nc2ccc(Oc3ccc(F)cc3)cc21` [Example 138]: the inhibition at 12.5 µM worked out at 93.1%.
